According to a melting point compilation (Tetko et al.; mined from patent text by program, amines drawn as free bases though some values may be those of a salt):

| SMILES | melting point |
| --- | --- |
| Fc1cc(Cl)c(OC2CCCC2)cc1-n1nc2c(c1Cl)CCCC2 | 88 to 91 °C |
| CC(C)CCc1c(-c2ccc(S(C)(=O)=O)c(F)c2)cnn(-c2ccc(F)c(Cl)c2)c1=O | 102 to 104 °C |
| O=c1cc(-c2ccsc2)c2ccc(O)cc2o1 | 234 to 236 °C |
| Cc1c(C(=O)Nc2ccc(N3CCC(O)CC3)c(C#N)c2)cnn1-c1ccc(Cl)cc1 | 247 °C |
| CCCCCCCCCCCCCCCCCCOc1c(OCC(CC)CCCC)ccc2c1C(=O)c1ccccc1C2=O (centres undefined) | 61 to 68 °C |
| CSC1=Nc2ccc(Cl)cc2Nc2cscc21 | 152 to 154 °C |
| CCCCCC[C@@H](CC(N)=O)N(CCC)C(=O)[C@H](CCCC(=O)O)NC(=O)c1cn(Cc2ccccc2)c2ccccc12 | 147 to 157 °C |
| CC(C)CCNC(Nc1cc(C(F)(F)F)cc(C(F)(F)F)c1)=C(C#N)C#N | 158 to 159 °C |
| O=S(CCCCCOc1ccc(C2=C(c3ccccc3)CCCc3cc(O)ccc32)cc1)Cc1ccccn1 (centres undefined) | 176 °C |
| Cc1ccc(N2CCCCC2)c(C(C)C(C(N)=O)c2ccc(C(=O)O)cc2)c1 (centres undefined) | 215 to 217 °C |
| Cc1c(C)c(Cl)c(Cl)c(Cl)c1Cl | 85 to 89 °C |
| S=c1nc(NCCCOc2cccc(CN3CCCCC3)c2)cc[nH]1 | 180 to 181 °C |
| CC(=O)NCC#CCn1cncc1C | 111 to 115 °C |
| CCC(=O)c1[nH]c2cc(Cl)ccc2c1N | 144 to 146 °C |
| O=c1[nH]c2ccc(Cl)cc2c(=O)c2ccccc12 | 289 to 293 °C |
| CCOc1cc(=O)[nH]c2ccccc12 | 223 to 226 °C |
| N#Cc1nc(-c2ccc(O)cc2)cs1 | 186 to 197 °C |
| CCCCCCCCC1(CCCCCCCC)c2cc(N)ccc2-c2ccc(N)cc21 | 58 to 63 °C |
| COC(=O)C(F)[C@@H]1[C@H]2O[C@H]2C[C@H]1O (some centres undefined) | 31 to 33 °C |

Second part, the compound after the results:

| melting point | SMILES |
| --- | --- |
| 140 to 141 °C | O=C(c1ccc(F)cc1)C1CCN(C(=O)CCc2ccc(OCc3ccccc3)cc2OCc2ccccc2)CC1 |
| 124 to 126 °C | CCOc1ccccc1NC(=O)C1Sc2ccc(Cl)cc2N(C)C1=O (centres undefined) |
| 188 to 190 °C | COc1ccc(-c2nc(S(=O)c3ccccc3)[nH]c2-c2ccc(OC)cc2)cc1 (centres undefined) |
| 219 to 220 °C | CCCOc1ccccc1-c1nc2nc(NN)ncc2c(=O)[nH]1 |
| 172 to 174 °C | CC(=O)c1cc(C(=O)c2ccc3ccccc3c2)c[nH]1 |
| 183 °C | O=[N+]([O-])c1ccc(C=Cc2nc(Nc3ccccc3)c3ccccc3n2)o1 |
| 168 to 170 °C | COc1ccccc1C(=O)Nc1ccc(N2CCCC2)cc1C(C)=O |
| 72 to 73 °C | [N-]=[N+]=NCC(=O)N1CC(c2ccccc2)c2ccccc21 (centres undefined) |
| 124 °C | CCC1SC(=O)N(Cc2ccc(NC(=O)C(F)(F)F)cc2)N=C1c1ccc(OC)c(OC)c1 (centres undefined) |
| 192 to 194 °C | CCCCc1nc(C(O)c2ccccc2)c(C(=O)O)n1Cc1ccc(-c2ccccc2C(=O)O)cc1 (centres undefined) |
| 136 to 137 °C | Cc1ccccc1C(CCC(=O)O)Oc1cc(OCc2cccc(CCC(=O)O)c2)ccc1C#N (racemic) |
| 243 to 244 °C | COC(=O)Cn1nnc(NC(=O)C2c3ccccc3Oc3ccccc32)n1 |
| 149 to 150 °C | COC(=S)NC(=O)c1ccccc1-c1ccc(C)cc1 |
| 196 to 198 °C | CC(=O)NC[C@H]1CN(c2ccc(C(=O)c3cnc4ccccn34)c(F)c2)C(=O)O1 |
| 141 to 142 °C | O=C(O)CCOCCCc1cccc(-c2nc(=O)c3ccccc3s2)n1 |
| 187 to 189 °C | CN(C)C=CC(=O)c1c(-c2ccccc2Cl)nc2occn12 |
| 166 to 169 °C | NC(=O)c1ccc(NCc2ccc(F)cc2)cn1 |
| 174 to 176 °C | COc1ccc(S(=O)(=O)Nc2cccnc2Nc2ccc(Oc3ccccc3)cc2)cc1 |
| 142 °C | CC(Cc1ccc(Cl)cc1Cl)NC(=O)c1ccccc1C(F)(F)F (centres undefined) |
| 162 °C | COc1ccc(C(C)N(C)CCCOc2ccc(S(=O)(=O)c3ncsc3-c3ccccc3)cc2)cc1OC (centres undefined) |
